Active and inactive are the calls of the source.
Tests used:
[1] = system: Streptococcus sp. 'group A'; assay: Streptococcus pyogenes SK(-)GAS viability under kanamycin – luminescence, BacTiterGlo, confirmation, counter-screen for streptokinase expression inhibitor project, dose response (AID 1900); format: functional, organism-based
Streptokinase A = target: T1, Streptokinase A (Streptococcus pyogenes serotype M1, UniProt P10520); assay: viability-normalized secreted streptokinase activity reduction – plasminogen activation absorbance, OD405, dose response (AID 1914); format: functional, Streptococcus pyogenes M1 GAS;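 also: secreted streptokinase activity via plasminogen activation per viability signal from cell pellet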
T1 sequence (P10520 whole entry): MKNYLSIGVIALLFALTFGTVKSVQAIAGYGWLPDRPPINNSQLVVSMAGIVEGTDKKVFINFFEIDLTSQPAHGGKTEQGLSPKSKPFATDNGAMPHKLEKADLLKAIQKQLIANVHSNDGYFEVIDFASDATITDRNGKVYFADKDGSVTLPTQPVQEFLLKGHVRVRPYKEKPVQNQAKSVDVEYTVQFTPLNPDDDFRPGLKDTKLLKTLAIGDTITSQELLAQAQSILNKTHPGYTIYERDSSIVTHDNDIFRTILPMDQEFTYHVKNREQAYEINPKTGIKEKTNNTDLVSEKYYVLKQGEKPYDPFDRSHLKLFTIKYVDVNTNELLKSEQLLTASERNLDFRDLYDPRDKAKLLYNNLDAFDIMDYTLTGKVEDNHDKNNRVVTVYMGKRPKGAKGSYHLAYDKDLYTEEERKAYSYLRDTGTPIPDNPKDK

[2] = Luminescence-based counterscreen assay for KLF5 inhibitors: dose response cell-based high throughput screening assay to identify cytotoxic compounds using the IEC-6 intestinal epithelial cell line. [Related pubchem assays: 1700 (Primary screen.), 1834 (Confirmation screen.), 1858 (Summary AID.), 1905 (Counterscreen.)]; format: functional
Streptococcus = assay: GAS UMAA2166 growth inhibition – luminescence, BacTiterGlo, counter-screen for streptokinase expression inhibitor project, dose response (AID 1915); format: functional, organism-based;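 also: potency for reduction of bacterial viability or growth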
[3] = A549 cell cytotoxicity, dose response, cytotoxicity control, plate reader, cherry-pick, antagonist series (AID 743412); format: functional, cell-based
[4] = toxicity toward HepG2 liver cells – cell-based, plate reader, cherry-pick, antagonist series, cytotoxicity control, dose response (AID 743416); format: functional
[5] = blockers of bursicon-stimulated LGR2 cAMP reporter – cell-based, HEK293, CRE-luciferase reporter, cherry pick, set 2, dose response (AID 743343); format: functional;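 also: transfected cells were stimulated with diluted bursicon conditioned medium after compound addition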
[6] = blockade of melanocortin 4 receptor signaling – cell-based, plate reader, cherry pick, counter-screen for LGR2 antagonist project, dose response (AID 743444); format: functional;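 also: transfected HEK 293 cells stimulated with alpha-MSH peptide; potency of inhibitors of the alpha-MSH evoked signal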
[7] = viability loss in HEK293 cells – cell-based, plate reader, cherry-picked samples, cytotoxicity control, dose response (AID 743446); format: functional
[8] = Luminescence Cell-Based Dose Response to Identify Activators of 5'UTR Stem-Loop Driven Prion Protein mRNA Translation in H4-C Neuroglioblastoma Cells. [Related pubchem assays: 1829 (Project Summary), 1814 (Primary HTS)]; format: functional
H4 = assay: Luminescence Cell-Based Dose Response HTS to Identify Activators of 5'UTR Stem-Loop Driven Prion Protein mRNA Translation in H4 Neuroglioblastoma Cells. [Related pubchem assays: 1829 (Project Summary), 1814 (Primary HTS)]; format: functional; conditions: Homo sapiens
[9] = Luminescence Cell-Based Dose Response to Identify Activators of Luciferase Translation or Activity in H4-C Neuroglioblastoma Cells. [Related pubchem assays: 1829 (Project Summary), 1814 (Primary HTS)]; format: functional
[10] = target: Epstein-Barr nuclear antigen 1 (Epstein-Barr virus (strain B95-8) (HHV-4) (Human herpesvirus 4), UniProt P03211); assay: inhibition of EBV nuclear antigen 1 DNA binding – biochemical, fluorescence polarization, 1536-well, dose response (AID 2381); set-up: species or system human gammaherpesvirus 4;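 also: fluorescence polarization of a Cy5 DNA probe bound by EBNA-1 protein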
[11] = target: Lytic switch protein BZLF1 (Epstein-Barr virus (strain B95-8) (HHV-4) (Human herpesvirus 4), UniProt P03206); assay: inhibition of BZLF1 ZTA DNA binding – biochemical, fluorescence polarization, Epstein-Barr virus, 1536-well, counter-screen for EBNA-1 inhibitor project, dose response (AID 2377); set-up: species or system human gammaherpesvirus 4;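 also: fluorescence polarization of Cy5-labelled ZRE DNA probe bound by purified Zta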
[12] = Luminescence Cell-Based Dose Confirmation to Identify Activators of 5'UTR Stem-Loop Driven Alpha-Synuclein mRNA Translation in H4 Neuroglioblastoma Cells. [Related pubchem assays: 1829 (Project Summary), 1814 (Primary HTS)]; format: functional
[13] = target: Neuropeptide Y receptor type 1 (Homo sapiens, UniProt P25929); format: functional;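 also: HEK293 cells with a CNG channel challenged with NPY then isoproterenol; potency as antagonist that reverses NPY suppression of cAMP signal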
[14] = target: Neuropeptide Y receptor type 2 (Homo sapiens, UniProt P49146); format: functional, cell-based;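 also: HEK293 cells expressing the receptor and a CNG channel; stimulus was NPY near EC95 followed by isoproterenol to raise cAMP; antagonist potency measured as restoring cAMP signal that NPY suppresses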
[15] = luciferase reporter signal suppression in cells – H4 neuroglioma cells, luminescence, dose response (AID 1990); format: functional, cell-based
[16] = decrease of insulin promoter-GFP reporter – imaging, high-content screening, mouse beta cells (AID 1628); format: functional; conditions: MIN6
[17] = Luminescence Cell-Based Dose Response HTS to Identify Inhibitors of 5'UTR Stem-Loop Driven Prion Protein mRNA Translation in H4 Neuroglioblastoma Cells. [Related pubchem assays: 1827 (Project Summary), 1813 (Primary HTS)]; format: functional
[18] = MIN6 cell viability loss – mouse insulinoma, cytotoxicity control, dose response (AID 2122); format: functional;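 also: confirmatory high-throughput counterscreen run to flag cytotoxic compounds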
Vero = assay: mammalian cell viability reduction – secondary assay, cytotoxicity control for West Nile virus antiviral project, dose response (AID 1650); format: functional; conditions: Chlorocebus sabaeus
[19] = alpha-synuclein stem-loop luciferase translation blockers – H4 neuroglioma cells, luminescence, confirmation (AID 1988); format: functional, cell-based
[20] = target: Induced myeloid leukemia cell differentiation protein Mcl-1 (Homo sapiens, UniProt Q07820); format: functional
Exodeoxyribonuclease V = target: T2, Exodeoxyribonuclease V (Escherichia coli (strain K12), UniProt P04993+P07648+P08394); assay: RecBCD inhibition via phage-restricted bacterial growth – absorbance, V66 E. coli, mutant T4 phage, counter-screen for AddAB inhibitor project, dose response (AID 492957); format: functional, cell-based, Escherichia coli str. K-12 substr. MG1655
T2 sequence (P04993 whole entry): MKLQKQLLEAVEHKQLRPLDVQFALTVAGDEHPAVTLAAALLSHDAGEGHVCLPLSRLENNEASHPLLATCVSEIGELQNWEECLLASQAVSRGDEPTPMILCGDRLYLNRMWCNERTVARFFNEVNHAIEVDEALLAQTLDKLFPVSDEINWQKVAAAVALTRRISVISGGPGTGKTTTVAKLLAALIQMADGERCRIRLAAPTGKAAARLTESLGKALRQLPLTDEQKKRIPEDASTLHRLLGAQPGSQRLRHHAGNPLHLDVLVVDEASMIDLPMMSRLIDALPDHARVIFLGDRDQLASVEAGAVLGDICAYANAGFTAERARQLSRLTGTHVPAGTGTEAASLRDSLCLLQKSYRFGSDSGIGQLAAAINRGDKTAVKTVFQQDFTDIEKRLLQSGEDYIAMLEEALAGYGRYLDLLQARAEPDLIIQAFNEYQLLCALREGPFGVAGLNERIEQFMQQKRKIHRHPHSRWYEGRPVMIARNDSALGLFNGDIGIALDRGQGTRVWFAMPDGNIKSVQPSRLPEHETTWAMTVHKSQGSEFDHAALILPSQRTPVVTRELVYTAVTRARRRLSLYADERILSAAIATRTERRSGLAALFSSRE
T2 sequence (P07648 whole entry): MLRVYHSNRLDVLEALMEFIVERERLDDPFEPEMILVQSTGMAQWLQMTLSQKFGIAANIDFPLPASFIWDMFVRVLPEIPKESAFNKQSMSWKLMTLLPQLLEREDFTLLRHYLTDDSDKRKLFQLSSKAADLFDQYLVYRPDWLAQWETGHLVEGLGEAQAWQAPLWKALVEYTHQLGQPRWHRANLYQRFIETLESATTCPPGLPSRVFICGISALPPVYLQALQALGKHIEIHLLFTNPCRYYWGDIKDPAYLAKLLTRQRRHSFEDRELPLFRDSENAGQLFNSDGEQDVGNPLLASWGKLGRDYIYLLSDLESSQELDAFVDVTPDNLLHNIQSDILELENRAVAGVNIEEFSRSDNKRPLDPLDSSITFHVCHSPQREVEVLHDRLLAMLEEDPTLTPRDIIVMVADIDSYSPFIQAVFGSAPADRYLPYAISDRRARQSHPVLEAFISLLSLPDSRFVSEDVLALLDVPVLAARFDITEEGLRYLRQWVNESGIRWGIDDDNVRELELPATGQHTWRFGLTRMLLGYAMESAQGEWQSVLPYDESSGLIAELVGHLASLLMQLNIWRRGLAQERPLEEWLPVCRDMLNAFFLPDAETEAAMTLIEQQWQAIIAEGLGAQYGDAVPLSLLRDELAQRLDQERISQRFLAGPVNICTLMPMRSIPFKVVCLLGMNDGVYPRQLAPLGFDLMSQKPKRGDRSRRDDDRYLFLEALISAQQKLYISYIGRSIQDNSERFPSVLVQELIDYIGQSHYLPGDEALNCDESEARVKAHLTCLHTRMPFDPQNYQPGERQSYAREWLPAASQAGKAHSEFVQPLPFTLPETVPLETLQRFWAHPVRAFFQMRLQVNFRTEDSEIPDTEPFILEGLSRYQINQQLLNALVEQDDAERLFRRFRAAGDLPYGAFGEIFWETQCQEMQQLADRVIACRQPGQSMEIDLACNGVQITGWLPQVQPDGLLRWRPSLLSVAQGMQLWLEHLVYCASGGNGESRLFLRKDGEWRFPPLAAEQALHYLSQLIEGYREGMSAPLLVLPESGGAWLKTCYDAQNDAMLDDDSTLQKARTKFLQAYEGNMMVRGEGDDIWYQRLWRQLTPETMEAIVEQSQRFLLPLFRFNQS
T2 sequence (P08394 whole entry): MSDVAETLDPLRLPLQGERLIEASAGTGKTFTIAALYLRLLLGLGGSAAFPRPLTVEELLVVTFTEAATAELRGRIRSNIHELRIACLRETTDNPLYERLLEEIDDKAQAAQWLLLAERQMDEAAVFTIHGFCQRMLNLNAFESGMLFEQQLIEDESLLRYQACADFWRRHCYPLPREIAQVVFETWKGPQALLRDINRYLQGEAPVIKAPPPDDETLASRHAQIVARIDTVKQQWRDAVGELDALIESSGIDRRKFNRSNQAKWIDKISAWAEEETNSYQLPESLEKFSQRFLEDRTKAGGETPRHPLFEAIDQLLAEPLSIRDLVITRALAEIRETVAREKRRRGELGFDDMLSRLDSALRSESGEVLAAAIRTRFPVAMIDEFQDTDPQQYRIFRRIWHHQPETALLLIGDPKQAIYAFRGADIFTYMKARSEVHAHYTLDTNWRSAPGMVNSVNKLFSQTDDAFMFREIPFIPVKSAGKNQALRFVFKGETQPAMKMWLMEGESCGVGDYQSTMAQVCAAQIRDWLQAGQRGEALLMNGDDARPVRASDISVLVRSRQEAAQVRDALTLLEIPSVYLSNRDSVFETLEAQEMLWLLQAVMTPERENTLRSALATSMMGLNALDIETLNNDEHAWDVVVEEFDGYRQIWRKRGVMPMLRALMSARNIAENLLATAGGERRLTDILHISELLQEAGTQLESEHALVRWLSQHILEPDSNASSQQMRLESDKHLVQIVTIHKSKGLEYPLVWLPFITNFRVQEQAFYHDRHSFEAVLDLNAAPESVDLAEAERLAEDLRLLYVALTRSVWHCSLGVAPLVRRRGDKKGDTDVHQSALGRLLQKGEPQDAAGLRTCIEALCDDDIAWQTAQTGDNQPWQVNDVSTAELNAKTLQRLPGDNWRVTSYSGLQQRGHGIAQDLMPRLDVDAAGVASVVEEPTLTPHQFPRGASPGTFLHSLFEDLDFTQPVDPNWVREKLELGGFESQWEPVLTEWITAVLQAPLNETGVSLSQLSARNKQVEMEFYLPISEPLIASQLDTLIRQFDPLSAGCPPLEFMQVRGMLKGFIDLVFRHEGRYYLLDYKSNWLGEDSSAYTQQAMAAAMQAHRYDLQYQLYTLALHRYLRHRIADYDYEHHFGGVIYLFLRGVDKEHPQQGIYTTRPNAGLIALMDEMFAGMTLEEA

[21] = Counterscreen for AddAB inhibitors: absorbance-based bacterial cell-based high throughput dose response assay for inhibitors of bacterial viability. [Related pubchem assays (depositor defined):AID435030, AID449728, AID449731, AID488942, AID488955, AID488956]; format: functional
INS1 = assay: INS-1E survival protection against cytokine death – cell-based, luminescence, retest, dose response (AID 449756); format: functional; conditions: Rattus norvegicus;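 also: cell death triggered by IL-1 beta plus TNF-alpha plus IFN-gamma mixture; protective hits raise ATP signal compared with cytokine alone wells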

Neuropeptide Y receptor type 2, sequence (P49146 whole entry): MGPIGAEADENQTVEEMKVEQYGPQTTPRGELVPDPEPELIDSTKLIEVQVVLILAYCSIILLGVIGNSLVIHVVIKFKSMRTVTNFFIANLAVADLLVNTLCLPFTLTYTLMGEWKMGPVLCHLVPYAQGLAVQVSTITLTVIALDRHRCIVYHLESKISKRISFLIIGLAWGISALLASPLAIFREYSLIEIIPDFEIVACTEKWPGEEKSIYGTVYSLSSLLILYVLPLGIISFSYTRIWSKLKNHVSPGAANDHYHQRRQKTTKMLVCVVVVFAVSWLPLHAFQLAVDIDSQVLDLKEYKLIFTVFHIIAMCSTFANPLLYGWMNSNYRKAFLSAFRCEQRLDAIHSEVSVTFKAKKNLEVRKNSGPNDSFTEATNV
Neuropeptide Y receptor type 1, sequence (P25929 whole entry): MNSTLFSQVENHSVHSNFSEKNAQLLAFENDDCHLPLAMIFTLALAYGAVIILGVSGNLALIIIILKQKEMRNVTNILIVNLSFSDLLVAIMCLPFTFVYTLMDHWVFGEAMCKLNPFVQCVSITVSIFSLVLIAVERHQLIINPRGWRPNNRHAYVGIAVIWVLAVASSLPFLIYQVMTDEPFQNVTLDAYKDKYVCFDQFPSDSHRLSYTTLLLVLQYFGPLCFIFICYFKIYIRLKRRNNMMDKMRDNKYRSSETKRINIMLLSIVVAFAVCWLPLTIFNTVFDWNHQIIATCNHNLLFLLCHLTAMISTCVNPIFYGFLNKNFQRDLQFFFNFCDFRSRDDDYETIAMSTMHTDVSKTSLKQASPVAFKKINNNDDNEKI
Epstein-Barr nuclear antigen 1, sequence (P03211 whole entry): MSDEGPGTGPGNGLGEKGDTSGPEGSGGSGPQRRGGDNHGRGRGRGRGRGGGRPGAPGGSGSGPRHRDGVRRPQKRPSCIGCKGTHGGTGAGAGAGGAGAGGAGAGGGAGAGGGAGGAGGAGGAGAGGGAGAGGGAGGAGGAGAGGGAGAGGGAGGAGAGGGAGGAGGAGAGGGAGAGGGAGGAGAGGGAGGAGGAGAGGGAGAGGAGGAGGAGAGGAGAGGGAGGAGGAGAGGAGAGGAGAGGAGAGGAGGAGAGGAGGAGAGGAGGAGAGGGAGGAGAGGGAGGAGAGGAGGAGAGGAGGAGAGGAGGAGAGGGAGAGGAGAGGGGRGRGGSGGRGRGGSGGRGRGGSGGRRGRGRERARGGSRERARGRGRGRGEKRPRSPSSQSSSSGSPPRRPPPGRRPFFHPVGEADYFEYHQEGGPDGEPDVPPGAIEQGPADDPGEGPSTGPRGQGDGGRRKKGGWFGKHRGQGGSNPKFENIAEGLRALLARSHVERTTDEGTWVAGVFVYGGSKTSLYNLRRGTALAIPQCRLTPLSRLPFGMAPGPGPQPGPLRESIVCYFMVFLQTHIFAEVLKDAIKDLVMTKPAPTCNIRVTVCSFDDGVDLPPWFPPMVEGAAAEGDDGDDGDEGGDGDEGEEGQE
Induced myeloid leukemia cell differentiation protein Mcl-1, sequence (Q07820 whole entry): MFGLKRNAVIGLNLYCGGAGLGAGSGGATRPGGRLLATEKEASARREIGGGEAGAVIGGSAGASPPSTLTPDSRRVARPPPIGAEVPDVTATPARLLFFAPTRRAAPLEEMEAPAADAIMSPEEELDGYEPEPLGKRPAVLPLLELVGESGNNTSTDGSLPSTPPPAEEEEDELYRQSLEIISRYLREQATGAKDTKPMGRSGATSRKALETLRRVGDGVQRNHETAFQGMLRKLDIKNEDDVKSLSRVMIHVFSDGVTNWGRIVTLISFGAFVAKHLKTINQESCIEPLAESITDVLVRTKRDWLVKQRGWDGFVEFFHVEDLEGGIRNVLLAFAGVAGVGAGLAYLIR
Lytic switch protein BZLF1, sequence (P03206 whole entry): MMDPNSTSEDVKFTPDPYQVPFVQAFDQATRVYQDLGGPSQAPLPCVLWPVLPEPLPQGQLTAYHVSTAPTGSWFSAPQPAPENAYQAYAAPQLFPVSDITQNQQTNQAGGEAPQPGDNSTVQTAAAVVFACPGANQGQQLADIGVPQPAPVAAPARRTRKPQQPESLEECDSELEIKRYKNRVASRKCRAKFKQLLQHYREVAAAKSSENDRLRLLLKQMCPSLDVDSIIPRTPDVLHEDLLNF

O=C(Nc1nc2cc3c(cc2s1)OCCO3)c1ccco1
EC50 [1]: 19.5 µM (active) | EC50 (Streptokinase A): > 150 µM (not active) | IC50 [2]: 7.91 µM (active) | EC50 (Streptococcus): 53.5 µM (active) | AC50 [3]: 12.9 µM (active) | AC50 [4]: 28.5 µM (active) | AC50 [5]: 1.12 µM (active) | AC50 [6]: 1.07 µM (active) | AC50 [7]: 45.4 µM (active)

Cc1cc(C(=O)CSc2nnnn2-c2ccccc2)c(C)n1CC1CCCO1 (centres undefined)
EC50 [8]: 0.326 µM (active) | EC50 (H4): < 0.1 µM (active) | EC50 [9]: 0.353 µM (active) | IC50 [10]: 5.23 µM (active) | IC50 [11]: > 111 µM (not active) | EC50 [12]: 0.338 µM (active)

COc1ccc(-c2noc(COc3ccc(Cl)c(C)c3)n2)cc1
IC50 [13]: 5.14 µM (active) | IC50 [14]: 4.25 µM (active)

Cc1ccc(C(C)C)c(OCc2ccc(C(=O)N/N=C/c3ccc(O)cc3O)cc2)c1
EC50 [15]: 3 µM (active) | IC50 [16]: 1.03 µM (active) | EC50 [1]: 1.3 µM (active) | EC50 [17]: 8.36 µM (active) | IC50 [18]: 1.04 µM (active) | CC50 (Vero): 6.86 µM (active) | EC50 [19]: 2.17 µM (active) | IC50 [20]: 4.97 µM (active) | EC50 (Streptococcus): 2.15 µM (active) | IC50 (Exodeoxyribonuclease V): > 119 µM (inactive) | IC50 [21]: > 119 µM (inactive) | AC50 (INS1): 1.24 µM (active)
